Values of other authors, collected in patent US12435156B2, “Methods for treating neuroblastoma with combination therapy” (MEMORIAL SLOAN-KETTERING CANCER CENTER, priority 2018, dated 2025).

How the values were obtained:
topoisomerase I = biological target: T1, topoisomerase I (Homo sapiens, UniProt P11387)
T1 sequence (P11387 1-765): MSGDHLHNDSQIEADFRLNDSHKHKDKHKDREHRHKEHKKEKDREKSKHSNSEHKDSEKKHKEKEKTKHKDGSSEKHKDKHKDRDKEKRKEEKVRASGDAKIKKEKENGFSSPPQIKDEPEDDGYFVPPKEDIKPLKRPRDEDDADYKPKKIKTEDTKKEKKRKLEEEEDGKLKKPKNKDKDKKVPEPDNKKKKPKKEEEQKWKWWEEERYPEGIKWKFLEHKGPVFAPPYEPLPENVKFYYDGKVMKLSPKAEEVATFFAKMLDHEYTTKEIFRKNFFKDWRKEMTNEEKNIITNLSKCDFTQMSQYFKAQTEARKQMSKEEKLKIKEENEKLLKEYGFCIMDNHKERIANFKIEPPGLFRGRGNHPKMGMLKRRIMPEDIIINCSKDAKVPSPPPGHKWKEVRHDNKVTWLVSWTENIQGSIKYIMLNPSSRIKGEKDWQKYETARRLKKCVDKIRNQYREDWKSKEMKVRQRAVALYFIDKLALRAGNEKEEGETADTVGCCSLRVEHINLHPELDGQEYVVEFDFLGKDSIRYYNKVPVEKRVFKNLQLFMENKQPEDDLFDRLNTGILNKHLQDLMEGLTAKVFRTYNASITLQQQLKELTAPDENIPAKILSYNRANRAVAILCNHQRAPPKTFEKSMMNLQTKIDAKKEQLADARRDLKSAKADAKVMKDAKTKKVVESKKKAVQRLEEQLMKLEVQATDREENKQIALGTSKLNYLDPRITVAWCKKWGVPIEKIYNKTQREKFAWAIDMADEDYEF

[1] = not given; remark: listed apart in the source
[2] = human, in vivo
[3] = not given; remark: listed apart in the source
[4] = not given; remark: listed apart in the source

For `CCc1c2c(nc3ccc(O)cc13)-c1cc3c(c(=O)n1C2)COC(=O)[C@]3(O)CC` [SN-38, 7-ethyl-10-hydroxycamptothecin], the “Topoisomerase I inhibitor potency/activity” value (topoisomerase I) is given as “much higher potency than irinotecan”.
In the case of `Cn1nnc2c(C(=O)O)ncn2c1=O` [temozolomide acid metabolite], the “Recovery of radioactivity in urine as this species” value (after temozolomide radioactive dose) is listed as 2.3%.
For `Cn1nnc2c(C(N)=O)ncn2c1=O` [Temozolomide, 3,4-dihydro-3-methyl-4-oxoimidazo[5,1-d]-as-tetrazine-8-carboxamide], the “Role of cytochrome P450 enzymes in metabolism” value (Cytochrome P450 enzymes) is listed as “only a minor role”, the “Stability at physiologic pH” value [1] is listed as “spontaneously hydrolyzed” and the “Mean percent bound of drug-related total radioactivity” value (human plasma proteins) is listed as 15%. The Dose-limiting side effects [2] was “hematologic toxicity, myelosuppression, anemia, and leukopenia”, the “Mean apparent volume of distribution” value (% CV=13%) was 0.4 L/kg and the “Kinetics over the therapeutic dosing range” value (in vivo) was “linear kinetics”. For the same compound, the Overall clearance (in vivo) was “about 5.5 L/hr/m^2”, the “Absorption after oral administration” value (oral) was “rapidly and completely absorbed” and the “Time of peak plasma concentrations” value (oral administration) was 1 h. For the same compound, the “Administered total radioactive dose recovered in feces” value (over 7 days) was 0.8%, the “Administered total radioactive dose recovered in urine” value (over 7 days) was 37.7% and the “Administered total radioactive dose recovered” value (over 7 days, total) was “About 38%”.
In the case of `CCc1c2c(nc3ccc(OC(=O)N4CCC(N5CCCCC5)CC4)cc13)-c1cc3c(c(=O)n1C2)COC(=O)[C@]3(O)CC` [Irinotecan, (S)-4,11-diethyl-4-hydroxy-3,14-dioxo-3,4,12,14-tetrahydro-1H-pyrano[3′,4′:6,7]indolizino[1,2-b]quinolin-9-yl [1,4′-bipiperidine]-1′-carboxylate], the Water solubility [3] is given as “water-soluble” and the “Toxicity associated with treatment” value [2] is given as “severe diarrhea, myelosuppression, and neutropenia”.
In the case of `CCc1c2c(nc3ccc(O[C@@H]4O[C@H](C(=O)O)[C@@H](O)[C@H](O)[C@H]4O)cc13)-c1cc3c(c(=O)n1C2)COC(=O)[C@]3(O)CC` [SN-38G, SN-38 glucuronide], the “Topoisomerase I inhibitor potency/activity” value (topoisomerase I) is listed as “inactive”.
For `NC(=O)c1[nH]cnc1N` [AIC], the “Exposure relative to the AUC of temozolomide” value (in vivo) is given as 23%.
For “sargramostim: Yeast-derived human recombinant granulocyte-macrophage colony stimulating factor”, the “Storage of liquid once the vial has been entered” value ([4]; 2-8° C.) is listed as “up to 20 days”, the “pH of reconstituted solution” value ([4]; 250 mcg vial reconstituted with 0.5 mL sterile water, 500 mcg/mL) is listed as 7.4±0.3 and the “Time to administration following reconstitution” value ([4]; single-use 250 mcg vials, no preservative) is listed as at most 6 h.
